Measured values: US6413959B1, “Method of treating depression with arylglycinamide derivatives” (Boehringer Ingelheim KG, priority 1995, dated 2002)

Columns and labels:
[1] = target: T1, NK1-receptor (substance P-receptor) (Homo sapiens, UniProt P25103); experiment: NK1-receptor affinity, displacement of 125I-labelled substance P on IM-9 cells; assay type: binding; conditions: human lymphoblastoma cells (IM-9) with cloned NK1-receptors
T1 construct: expressed in transfected cells; host or cells: IM-9 human lymphoblastoma cells
T1 sequence (P25103 whole entry): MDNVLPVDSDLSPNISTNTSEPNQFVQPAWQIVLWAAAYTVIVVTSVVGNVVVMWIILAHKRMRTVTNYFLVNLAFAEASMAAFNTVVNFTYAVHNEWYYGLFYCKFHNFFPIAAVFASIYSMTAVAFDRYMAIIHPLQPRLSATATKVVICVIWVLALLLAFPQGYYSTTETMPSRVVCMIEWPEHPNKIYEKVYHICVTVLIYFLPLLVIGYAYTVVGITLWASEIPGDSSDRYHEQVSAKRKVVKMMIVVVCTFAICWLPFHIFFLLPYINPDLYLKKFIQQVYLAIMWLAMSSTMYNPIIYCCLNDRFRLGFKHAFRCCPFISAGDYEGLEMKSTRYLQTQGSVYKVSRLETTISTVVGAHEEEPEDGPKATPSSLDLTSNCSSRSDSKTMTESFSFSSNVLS

NK1 = target: T2, NK1 (Cavia porcellus, UniProt P30547); experiment: Inhibition of the lowering of blood pressure caused by NK1 in anaesthetised guinea pigs; assay type: in vivo; conditions: guinea pig, iv, antagonist given by intraduodenal route, NK1-agonist [βAla4, Sar9, Met(O2)11] SP(4-11) 0.2 μmol/kg i.v., read-out: ID50 (dose which inhibits the lowering of blood pressure caused by the NK1-agonist by 50%)
T2 construct: Guinea pigs weighing 300-500 grams were anaesthetised with pentobarbital; from tissue; host or cells: whole anaesthetised guinea pig (in vivo)
T2 sequence (P30547 whole entry): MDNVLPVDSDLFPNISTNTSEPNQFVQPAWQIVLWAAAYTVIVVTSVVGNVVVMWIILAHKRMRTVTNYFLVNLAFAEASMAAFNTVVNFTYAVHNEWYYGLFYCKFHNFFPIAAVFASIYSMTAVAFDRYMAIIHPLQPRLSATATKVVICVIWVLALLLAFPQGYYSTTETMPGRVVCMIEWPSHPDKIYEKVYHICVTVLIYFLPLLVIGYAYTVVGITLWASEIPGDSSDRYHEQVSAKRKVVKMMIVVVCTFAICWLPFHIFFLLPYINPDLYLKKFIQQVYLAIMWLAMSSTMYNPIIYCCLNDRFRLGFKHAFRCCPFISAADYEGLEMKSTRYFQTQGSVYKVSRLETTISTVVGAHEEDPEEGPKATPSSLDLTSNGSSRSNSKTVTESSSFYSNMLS

Ki [1] [nM]	melting point	Structure (SMILES)	ED50 (NK1) [mg/kg]
2.1	87 to 97 °C	CN(CCc1cc(C(F)(F)F)cc(C(F)(F)F)c1)C(=O)C(c1ccc2c(c1)OCO2)N1CCN(C2CCCCC2)CC1 (stereo not drawn) [Example 71]	
9.2	148 to 156 °C	CN(CCc1cc(C(F)(F)F)cc(C(F)(F)F)c1)C(=O)C(c1ccccc1)N1CCN(CCc2ccccc2)CC1 (stereo not drawn) [Example 65]	
11.8		CN(CCc1ccc(C(F)(F)F)cc1C(F)(F)F)C(=O)C(c1ccccc1)N1CCC(N2CCCCC2)CC1 (stereo not drawn) [Example 74]	
6.4	212 to 216 °C (dec.)	CN(CCc1cc(C(F)(F)F)cc(C(F)(F)F)c1)C(=O)C(c1ccc(Cl)c(Cl)c1)N1CCN(C2CCCCC2)CC1 (stereo not drawn) [Example 58]	
1.4	113 to 117 °C (dec.)	CN(CCc1cc(C(F)(F)F)cc(C(F)(F)F)c1)C(=O)C(c1ccccc1)N1CCN(CC2CC2)CC1 (stereo not drawn) [Example 66]	
1.5	236 to 238 °C (dec.)	CN(CCc1cc(C(F)(F)F)cc(C(F)(F)F)c1)C(=O)C(c1ccccc1)N1CCN(C2CCC2)CC1 (stereo not drawn) [Example 68]	
4.2	244 to 246 °C (dec.)	CN(CCc1cc(C(F)(F)F)cc(C(F)(F)F)c1)C(=O)C(c1ccc(Cl)c(Cl)c1)N1CCC(N2CCCCC2)CC1 (stereo not drawn) [Example 59]	
2.8	123 to 133 °C (dec.)	COc1ccc(C(C(=O)N(C)CCc2cc(C(F)(F)F)cc(C(F)(F)F)c2)N2CCN(C3CCCCC3)CC2)cc1OC (stereo not drawn) [Example 70]	

Second part, the compound before the results:

Structure (SMILES)	Ki [1] [nM]	melting point	ED50 (NK1) [mg/kg]
CN(Cc1cc(C(F)(F)F)cc(C(F)(F)F)c1)C(=O)C(c1ccccc1)N1CCN(C2CCCCC2)CC1 (stereo not drawn) [Example 4]	1	> 240 °C (dec.)	
CN(CCc1cc(C(F)(F)F)cc(C(F)(F)F)c1)C(=O)C(c1ccccc1)N1CCC(C#N)(c2ccccc2)CC1.Cl (stereo not drawn) [Example 75]	180	91 to 98 °C	
CN(CCc1cc(C(F)(F)F)cc(C(F)(F)F)c1)C(=O)C(c1ccccc1)N1CCN(C2CCCCC2)CC1 (stereo not drawn) [Example 5]	1.3	158 to 164 °C	1.4
O=C(NCCc1cc(C(F)(F)F)cc(C(F)(F)F)c1)C(c1ccccc1)N1CCN(C2CCCCC2)CC1 (stereo not drawn) [Example 3]	1.4	235 to 238 °C	
CN(CCc1cc(C(F)(F)F)cc(C(F)(F)F)c1)C(=O)C(c1ccccc1)N1CCN(C2CCCCCC2)CC1 (stereo not drawn) [Example 53]	2.3	110 to 120 °C	
CN(CCc1cc(C(F)(F)F)cc(C(F)(F)F)c1)C(=O)C(c1ccccc1)N1CCC(N2CCCC2)CC1 (stereo not drawn) [Example 52]	1.1	133 to 143 °C	
CN(CCc1cc(C(F)(F)F)cc(C(F)(F)F)c1)C(=O)C(c1ccccc1)N1CCC(N2CCCC2)CC1 (stereo not drawn) [Example 45]	1.6		
CN(CCc1cc(C(F)(F)F)cc(C(F)(F)F)c1)C(=O)C(c1ccccc1)N1CCC(N2CCCCC2)CC1 (stereo not drawn) [Example 33]	1.3		
